Assay results reported in PubChem BioAssay (NCI).
Where “and” joins values, the source holds several entries; their conditions need not be identical. Equal values may be shown once.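 A five-concentration, 48-hour dose response in 96-well plates underlies each endpoint, interpolated linearly between surrounding concentrations. GI50: concentration for 50% inhibition of growth. The concentration for full growth arrest is given as TGI.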

Tests used:
Assay in all cases: NCI anticancer screen, dose series, 48 h
[1] = test system: RXF 393 renal
[2] = test system: KM12 colon
[3] = test system: SW-620 colon
[4] = test system: MALME-3M melanoma
[5] = test system: UACC-257 melanoma
[6] = test system: HL-60(TB) leukemia
[7] = test system: MCF7 breast
[8] = test system: NCI/ADR-RES ovarian
[9] = test system: MDA-MB-231 breast
[10] = test system: PC-3 prostate

| Compound | TGI [1] | TGI [2] | TGI [3] | TGI [4] | TGI [5] | TGI [6] | TGI [7] | TGI [8] | TGI [9] | TGI [10] | GI50 [7] | GI50 [8] | GI50 [2] | GI50 [3] | GI50 [9] | GI50 [10] | GI50 [5] | GI50 [1] | GI50 [4] |
| --- | --- | --- | --- | --- | --- | --- | --- | --- | --- | --- | --- | --- | --- | --- | --- | --- | --- | --- | --- |
| COc1c2nc(CCl)[nH]c(=O)c2c(OC)c2nc(CCl)[nH]c(=O)c12 | > 100 µM | > 100 µM | > 100 µM | > 100 µM | > 100 µM | > 100 µM | – | – | – | – | – | – | – | – | – | – | – | – | – |
| COc1ccc([N+]2=NC(c3ccc([N+](=O)[O-])cc3)=NN(c3ccccc3)C2)cc1 | > 100 µM | > 100 µM | > 100 µM | > 100 µM | > 100 µM | 83.2 µM and 69.3 µM | – | – | – | – | – | – | – | – | – | – | – | – | – |
| COc1ccc(NC(=O)C(=O)C(C(=O)c2ccccc2)C2OC(=O)c3ccccc32)c([N+](=O)[O-])c1 (stereo unspecified) | > 100 µM | > 100 µM | > 100 µM | > 100 µM | > 100 µM | > 100 µM | – | – | – | – | – | – | – | – | – | – | – | – | – |
| O=C(Nc1cc(Cl)c(Cl)cc1Cl)C(=O)C1C=CCS1(=O)=O (stereo unspecified) | > 100 µM | > 100 µM | > 100 µM | > 100 µM | > 100 µM | > 100 µM | – | – | – | – | – | – | – | – | – | – | – | – | – |
| COC(=O)c1s/c(=N\C(=S)N(C)C)n(-c2ccccc2)c1C(=O)OC | > 100 µM | > 100 µM | > 100 µM | > 100 µM | > 100 µM | > 100 µM | – | – | – | – | – | – | – | – | – | – | – | – | – |
| O=C1OC(CC(=O)c2ccc(Cl)c(Cl)c2)C(Cl)=C1Cl (stereo unspecified) | > 100 µM | > 100 µM | > 100 µM | > 100 µM | > 100 µM | > 100 µM | – | – | – | – | – | – | – | – | – | – | – | – | – |
| Cn1ccnc1CC(C)(O)c1ccccc1 (stereo unspecified) | > 100 µM | > 100 µM | > 100 µM | > 100 µM | > 100 µM | – | > 100 µM | > 100 µM | > 100 µM | > 100 µM | – | – | – | – | – | – | – | – | – |
| CC(C)(C#N)c1cc(Cn2cncn2)cc(C(C)(C)C#N)c1 | – | > 10000 µM | > 10000 µM | – | > 10000 µM | – | > 10000 µM | > 10000 µM | > 10000 µM | > 10000 µM | 2240 µM | 477 µM | > 10000 µM | > 10000 µM | 539 µM | 792 µM | > 10000 µM | – | – |
| CCCCc1c2c(nc3c1CCC/C3=C\c1ccccc1)C(=O)CCC2 | 33 µM | 51.8 µM | 45 µM | 52 µM | 44.8 µM | 74.3 µM | – | – | – | – | – | – | – | – | – | – | – | – | – |
| CC(C)CS(=O)(=O)/C(=C(\c1ccc(Br)cc1)S(=O)(=O)CC(C)C)c1ccc(Br)cc1 | > 100 µM | > 100 µM | > 100 µM | > 100 µM | > 100 µM | – | – | – | – | – | – | – | – | – | – | – | – | – | – |
| O=[N+]([O-])c1cccc(C2N3CCCCC3[C@@H]3c4[nH]c5ccccc5c4CCN23)c1 (stereo partly specified) | 18.8 µM | – | > 100 µM | 18.9 µM | 27 µM | 29 µM | – | – | – | – | – | – | – | – | – | – | – | – | – |
| CC(=O)OCC1OC(N2C(=O)C(=O)c3cc(C)ccc32)C(OC(C)=O)C(OC(C)=O)C1OC(C)=O (stereo unspecified) | 90.7 µM | > 100 µM | > 100 µM | > 100 µM | > 100 µM | 59.5 µM | – | – | – | – | – | – | – | – | – | – | – | – | – |
| Cc1c[nH]c2c(O)cc3c(c12)[C@H](CCl)CN3C(=O)c1cc2cc(NC(=O)Nc3ccc4[nH]c(C(=O)N5C[C@@H](CCl)c6c5cc(O)c5[nH]cc(C)c65)cc4c3)ccc2[nH]1 | 70.8 nM and > 100 µM and 0.000888 µg/mL | 15 nM and 28.1 µM and 3e-06 µg/mL | – | 34.2 µM and 0.0012 µg/mL | 42.4 µM and 0.00318 µg/mL | – | 21.9 µM and 0.00887 µg/mL and 8.88 µg/mL | – | 54.6 µM | – | – | – | – | 0.0068 µM | 0.0176 µM | 0.023 µM | 1.27 ng/mL | – | – |
| COc1ccc(N2C(=O)CC(Cl)C2=O)cc1 (stereo unspecified) | 40.7 µM | – | 35.2 µM | 32.8 µM | 29.7 µM | – | > 100 µM | > 100 µM | 36.5 µM | > 100 µM | – | – | – | – | – | – | – | – | – |
| Cc1cc(Cl)ccc1NC(=O)CCCC(=O)C1CCCC1=O (stereo unspecified) | – | > 100 µM | > 100 µM | > 100 µM | > 100 µM | > 100 µM | – | – | – | – | – | – | – | – | – | – | – | – | – |
| Cc1[nH]c2ccccc2c1C1Cc2ccccc2N1C(=O)/C=C\C(=O)O (stereo unspecified) | 71.3 µM | > 100 µM | > 100 µM | > 100 µM | 37.8 µM | 68.2 µM | – | – | – | – | – | – | – | – | – | – | – | – | – |
| COc1cc2c(cc1OCCCOc1cc3c(cc1OC)C(=O)N1C[C@H](F)C[C@H]1C=N3)N=C[C@@H]1C[C@@H](F)CN1C2=O | 7.6 µM | 26.7 µM | 20 µM | 18.1 µM | – | – | 18.1 µM | 26 µM | 31.3 µM | 37.3 µM | 3.09 µM | 11.9 µM | 12.7 µM | 4.2 µM | 16 µM | 12.6 µM | – | 2.4 µM | 4.28 µM |
